From patent publication US10544136B2, “Modulators of sphingosine phosphate receptors” (The Scripps Research Institute, priority 2008, dated 2020)
pEC50: −log10 of the molar value.

target: S1P1 (Homo sapiens (Human), UniProt P21453); test: S1P1 agonist assay (Ec50 S1P1Ag); type: cell-based; settings: not given
Text: The exact dosage will depend upon the activity of the compound, mode of administration, on the therapy desired, form in which administered, the subject to be treated and the body weight of the subject to be treated, and the preference and experience of the physician or veterinarian in charge. S1P1 agonist bioactivity of the compounds of the invention can be determined by use of an in vitro assay system which measures the activation of S1P1, which can be expressed as EC50 values, as are well known in the art inhibitors of the invention can be determined by the method described in the Examples.

S1P1, sequence (P21453 whole entry): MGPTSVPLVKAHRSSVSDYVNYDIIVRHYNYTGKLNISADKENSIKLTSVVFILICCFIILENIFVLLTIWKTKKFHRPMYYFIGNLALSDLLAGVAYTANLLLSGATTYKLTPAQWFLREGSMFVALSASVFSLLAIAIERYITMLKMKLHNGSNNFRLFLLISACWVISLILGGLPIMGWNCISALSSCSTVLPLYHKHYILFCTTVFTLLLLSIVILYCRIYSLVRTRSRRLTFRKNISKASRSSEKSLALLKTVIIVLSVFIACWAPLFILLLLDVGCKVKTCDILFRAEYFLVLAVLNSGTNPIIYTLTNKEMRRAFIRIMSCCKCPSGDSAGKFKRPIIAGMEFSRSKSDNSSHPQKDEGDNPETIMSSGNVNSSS

Row | Compound | pEC50
1 | Cc1ccc(-c2nc(-c3ccnc(N)c3)no2)cc1C(F)(F)F [Compound 69] | 6.71
2 | CCOc1cccc(-c2nc(-c3ccncc3C)no2)c1 [Compound 64] | 6.64
3 | CCOc1ccc(-c2nc(-c3cccc4[nH]cc(CNCCN(C)C)c34)no2)cc1OCC [Compound 222] | 6.55
4 | COc1cc(-c2nc(-c3ccncc3)no2)ccc1C [Compound 39] | 6.38
5 | CCOc1ccc(-c2nc(-c3cccc4[nH]cc(CNC)c34)no2)cc1OCC [Compound 233] | 6.24
6 | CCOc1ccc(-c2nc(-c3cccc4[nH]cc(CN(C)CCO)c34)no2)cc1OCC [Compound 221] | 5.85
7 | CCn1nc(C)cc1-c1nc(-c2ccc(C)c(OC)c2)no1 [Compound 48] | 6.53
8 | COc1cc(-c2noc(-c3ccnc(Cl)c3)n2)ccc1C [Compound 29] | 6.24
9 | CCOc1ccc(-c2nc(-c3ccnc(CNC(C)(C)CO)c3)no2)cc1OCC [Compound 218] | 6.88
10 | CCOc1ccc(-c2nc(-c3ccc4ccccc4c3)no2)cc1OCC [Compound 212] | 6.47
11 | COc1cc(OC)c(-c2nc(-c3ccncc3)no2)cc1OC [Compound 11] | 5.19
12 | CCOc1ccc(-c2nc(-c3ccc4[nH]cc(CNCCO)c4c3)no2)cc1OCC [Compound 239] | 6.06
13 | CCOc1ccc(-c2nc(-c3ccc4[nH]cc(CNCCN(CC)CC)c4c3)no2)cc1OCC [Compound 224] | 6.31
14 | CCOc1ccc(-c2nnc(-c3ccncc3)o2)cc1OCC [Compound 89] | 6.65
15 | CCOc1cccc(-c2nc(-c3ccncc3)no2)c1 [Compound 38] | 6.03
16 | CCOc1ccc(-c2nc(-c3ccc(OC(F)(F)F)cc3)no2)cc1OCC [Compound 206] | < 5.30
17 | COc1cc(-c2noc(-c3cc(CC(C)C)no3)n2)ccc1C [Compound 30] | 5.86
18 | CCOc1ccc(-c2nc(-c3cccc(Br)c3C)no2)cc1OCC [Compound 121] | 6.19

Row | Compound | pEC50
19 | CCOc1cccc(-c2nc(-c3ccnc(N)c3)no2)c1 [Compound 65] | 6.50
20 | Cc1ccc(-c2nc(-c3ccncc3)no2)cc1C(F)(F)F [Compound 49] | 6.31
21 | CCC(c1ccccc1)c1nc(-c2ccncc2)no1 (stereo not drawn) [Compound 109] | 5.82
22 | CCOc1ccc(-c2nc(-c3ccc(CN4C[C@H](O)C[C@H]4C(=O)N(C)C)cc3C)no2)cc1OCC [Compound 210] | 6.79
23 | CCOc1ccc(-c2nc(-c3cccc4c3CCC4O)no2)cc1[N+](=O)[O-] (stereo not drawn) [Compound 266, 4-(5-(4-ethoxy-3-nitrophenyl)-1,2,4-oxadiazol-3-yl)-2,3-dihydro-1H-inden-1-ol] | 6.65
24 | COc1cc(-c2noc(-c3cc(C)nc(Cl)c3)n2)ccc1C [Compound 28] | 6.32
25 | CCOc1ccc(-c2nnc(-c3ccncc3)[nH]2)cc1OCC [Compound 93] | 5.55
26 | CCOc1ccc(-c2nc(-c3ccc(C4=NCCN4)cc3)no2)cc1OCC [Compound 181] | 6.13
27 | COc1cc(-c2nc(-c3cccnc3)no2)ccc1C [Compound 75] | 6.56
28 | NS(=O)(=O)c1ccc(-c2noc(-c3cc(Cl)nc(Cl)c3)n2)cc1 [Compound 22] | 5.99
29 | CCOc1ccc(-c2nc(-c3cccc(CN4CCCC4)c3)no2)cc1OCC [Compound 77] | 6.35
30 | COc1cc(-c2nc(-c3ccc(C)c(OC)c3)no2)ccn1 [Compound 40] | 6.21
31 | CCOc1ccc(-c2nc(-c3ccc(CN(C)C)cc3)no2)cc1OCC [Compound 81] | 6.91
32 | COc1cc(-c2noc(-c3ccnnc3)n2)ccc1C [Compound 41] | 5.11
33 | CCOc1ccc(-c2nc(-c3cccc4[nH]cc(CNC(C)(C)CO)c34)no2)cc1OCC [Compound 213] | 6.20
34 | COc1cc(-c2noc(-c3cccnc3)n2)ccc1C [Compound 24] | 5.74
35 | CCOc1ccc(-c2nc(-c3cc4ccccc4cn3)no2)cc1OCC [Compound 208] | 6.81
36 | FC(F)(F)c1cc(-c2nc(-c3cccnc3)no2)ccc1-c1ccccc1 [Compound 63] | 6.89

The next lines start with the values.

Row | pEC50 | Compound
37 | > 9.30 | CCOc1ccc(-c2nc(-c3cccc4c3CCC4O)no2)cc1C(F)(F)F (stereo not drawn) [Compound 260, 4-(5-(4-ethoxy-3-(trifluoromethyl)phenyl)-1,2,4-oxadiazol-3-yl)-2,3-dihydro-1H-inden-1-ol]
38 | > 9.30 | CC(C)Oc1ccc(-c2nc(-c3cccc4c3CCC4O)no2)cc1C(F)(F)F (stereo not drawn) [Compound 259, 4-(5-(4-isopropoxy-3-(trifluoromethyl)phenyl)-1,2,4-oxadiazol-3-yl)-2,3-dihydro-1H-inden-1-ol]
39 | 7.04 | CCOc1ccc(-c2nc(-c3cccc4c3CCC4NC(C)(C)CO)no2)cc1OCC (stereo not drawn) [Compound 216]
40 | 6.94 | CCOc1ccc(-c2nc(-c3ccccn3)no2)cc1OCC [Compound 33]
41 | 7.06 | CCOc1ccc(-c2nc(-c3ccc(CN4CCCC4)cc3)no2)cc1OCC [Compound 80]
42 | 7.45 | CCOc1ccc(-c2nc(-c3ccc(CN4CCCC4)c(C)c3)no2)cc1OCC [Compound 202]
43 | > 9.30 | CC(C)Oc1ccc(-c2ncc(-c3cccc4c3CCC4NCCO)o2)cc1C#N (stereo not drawn) [Compound 271]
44 | 8.77 | CCOc1ccc(-c2nc(-c3ccc4c(c3)NC(=O)C4)no2)cc1OCC [Compound 155]
45 | 7.67 | CCOc1ccc(-c2nc(-c3cccc4c3CCC4=O)no2)cc1OCC [Compound 227]
46 | 8.38 | CCOc1ccc(-c2nc(-c3ccc4c(c3)NCC4)no2)cc1OCC [Compound 150]
47 | 7.02 | CCOc1ccc(-c2nc(-c3ccnc(C(=O)O)c3)no2)cc1OCC [Compound 241]
48 | 7.58 | CCOc1ccc(-c2nc(-c3ccnc(C(=O)NCCO)c3)no2)cc1OCC [Compound 242]
49 | 9.00 | CCOc1ccc(-c2nc(-c3ccc4c(c3)CCN4CCCO)no2)cc1OCC [Compound 258]
50 | 7.08 | c1cc(-c2noc(-c3ccc(C4CCCCC4)cc3)n2)ccn1 [Compound 56]
51 | > 9.30 | CCOc1ccc(-c2nc(-c3cccc4c3CCN4CCO)no2)cc1OCC [Compound 234]
52 | 10.00 | CCOc1ccc(-c2nc(-c3cccc4c3CCC4O)no2)cc1OCC (stereo not drawn) [Compound 215, 4-(5-(3,4-diethoxyphenyl)-1,2,4-oxadiazol-3-yl)-2,3-dihydro-1H-inden-1-ol]

Row | pEC50 | Compound
53 | > 9.30 | CCOc1ccc(-c2nc(-c3cccc4c3CCC4O)no2)cc1C#N (stereo not drawn) [Compound 262, 2-ethoxy-5-(3-(1-hydroxy-2,3-dihydro-1H-inden-4-yl)-1,2,4-oxadiazol-5-yl)benzonitrile]
54 | 6.98 | CCOc1ccc(-c2nc(-c3ccc(CO)c(C)c3)no2)cc1OCC [Compound 200]
55 | 8.14 | CCOc1ccc(-c2noc(-c3ccncc3)n2)cc1OCC [Compound 257]
56 | 7.06 | CCOc1ccc(-c2nc(-c3ccc(N4CCN(C)CC4)cc3C)no2)cc1OCC [Compound 100]
57 | 7.72 | CCOc1ccc(-c2nc(-c3ccc(CN(C)C)cc3C)no2)cc1OCC [Compound 128]
58 | 8.30 | CCOc1ccc(-c2nc(-c3ccc(C#N)cc3C)no2)cc1OCC [Compound 122]
59 | 9.15 | CCOc1ccc(-c2nc(-c3cccc4c3CCC4NCCN(CC)CC)no2)cc1OCC (stereo not drawn) [Compound 243]
60 | 8.00 | CCOc1ccc(-c2nc(-c3ccc(CNCCO)cc3C)no2)cc1OCC [Compound 252]
61 | 8.00 | CC(C)Oc1ccc(-c2nc(-c3cccc4c3CCC4NCCO)no2)cc1C(F)(F)F (stereo not drawn) [Compound 263, 2-(4-(5-(4-isopropoxy-3-(trifluoromethyl)phenyl)-1,2,4-oxadiazol-3-yl)-2,3-dihydro-1H-inden-1-ylamino)ethanol]
62 | 8.52 | CCOc1ccc(-c2nc(-c3ccc4cc[nH]c4c3)no2)cc1OCC [Compound 124]
63 | 7.90 | CCOc1ccc(-c2nc(-c3cccc(C)c3C)no2)cc1OCC [Compound 166]
64 | 6.92 | CCOc1ccc(-c2nc(-c3cccc4[nH]cc(CN5CC[C@@H](O)C5)c34)no2)cc1OCC [Compound 231]
65 | 7.61 | CCOc1ccc(-c2nc(-c3cncc(CO)c3)no2)cc1OCC [Compound 225]
66 | > 9.30 | 4-(5-(4-isopropoxy-3-(trifluoromethyl)phenyl)-1,2,4-oxadiazol-3-yl)-2,3-dihydro-1H-inden-1-ol [Compound 261]
67 | 7.32 | FC(F)(F)c1cc(-c2nc(-c3ccc(CN4CCCC4)cc3)no2)ccc1-c1ccccc1 [Compound 82]
68 | 6.95 | CCOc1ccc(-c2cc(-c3ccncc3)no2)cc1OCC [Compound 269]

same assay, conditions: unit μM/uM

Row | EC50 | Compound
69 | 7.8 µM | FC(F)(F)c1ccc(-c2noc(-c3ccnnc3)n2)cc1 [Compound 4]
70 | 73 µM | COc1ccc(-c2nc(-c3ccccc3)no2)cc1 [Compound 8]
71 | 6.5 µM | FC(F)(F)c1ccc(-c2noc(-c3cccnc3)n2)cc1 [Compound 2]
72 | 10 µM | CCOc1ccc(-c2nc(-c3cccc(OC(F)(F)F)c3)no2)cc1OCC [Compound 205]
73 | 31.8 µM | COc1cc(-c2noc(-c3cc4ccccc4s3)n2)ccc1C [Compound 47]
74 | 68.4 µM | CC(C)COc1ccc(-c2nc(-c3ccncc3)no2)cc1 [Compound 9]
75 | 7.08 µM | Cc1cc(-c2noc(-c3ccc(C)c(C(F)(F)F)c3)n2)ccn1 [Compound 70]
76 | 466 µM | COc1cc(-c2nc(-c3ccc(C(F)(F)F)cc3)no2)ccn1 [Compound 1]
77 | 4.1 µM | Fc1cc(-c2nc(-c3ccc(C(F)(F)F)cc3)no2)ccn1 [Compound 6]
78 | 95.5 µM | CCOc1cccc(-c2nc(-c3cccnc3)no2)c1 [Compound 67]
79 | 12 µM | COc1cc(-c2nc(-c3ccc(S(N)(=O)=O)cc3)no2)ccn1 [Compound 19]
80 | 5.9 µM | [O-][n+]1ccc(-c2nc(-c3ccc(C(F)(F)F)cc3)no2)cc1 [Compound 3]
81 | 10 µM | CCOc1ccc(-c2nc(-c3ccc4[nH]cc(CN5CCCC5)c4c3)no2)cc1OCC [Compound 223]
